Experimental data reported in US4507315A, “Hypoglycaemic and hypolipidaemic benzamide substituted (1H-) imidazole derivatives and compositions” (May & Baker Limited, priority 1982, dated 1985).
Several values for one entry are separate records, joined by “and”; a condition that tells them apart may be missing. Identical values can stand only once.

How the values were obtained:
Assay type in all cases: in vivo
[1] = tested on: Diabetic mice (strain C 57, black, MRI derived Obese/Obese); assay: Hypoglycaemic Activity in Diabetic Mice (oral, 3 days); details: for change in vivo at 200 mg/kg / change in blood glucose compared with control: 200 mg/kg body weight per day; for change in vivo at 30 mg/kg: 30 mg/kg body weight per day; for change in vivo at 100 mg/kg: 100 mg/kg body weight per day
Experimental: Diabetic mice (strain C 57, black, MRI derived Obese/Obese) of either sex each weighing between 45 and 70 g were given the test compound orally in tragacanth mucilage at a dose of 5,10,30,100,200 or 500 mg/kg body weight per day for 3 days. Three hours after the last dose the animals were killed with carbon dioxide and bled by cardiac puncture. The blood glucose levels were assessed by the glucose-oxidase method of GOD-Perid. Control groups (given doses of unmedicated tragacanth mucilage) were included with each test. The percentage reduction in the concentration of blood glucose was calculated by comparison with the simultaneous controls, for each of the test compounds used.

Male Wistar rats = assay: Hypolipidaemic Activity in Rats; details: oral, last 3 days of 10-day cholesterol/cholic acid diet
Experimental: Male Wistar rats each weighing between 120 and 150 g were caged in groups of eight and fed a pelleted diet incorporating 0.5% w/w cholesterol and 0.25% w/w cholic acid for 10 days. For the last 3 days of that period the test compound was administered orally at a dose of 30, 100 or 200 mg/kg body weight per day in tragacanth mucilage.
At noon on day 10 the animals were killed by inhalation of carbon dioxide from solid carbon dioxide. A sample of blood was removed by cardiac puncture and the serum cholesterol and serum triglycerides were analysed by means of an auto-analyser.
Control group (receiving only doses of unmedicated tragacanth mucilage) were included with each test.
The percentage reductions in the concentrations of serum cholesterol and serum triglycerides were calculated by comparison with the simultaneous controls, for each concentration of the test compound used.

[2] = tested on: Diabetic mice (strain C 57, black, MRI derived Obese/Obese); assay: Hypoglycaemic Activity in Diabetic Mice (oral, 8 days, W hydrochloride); details: male diabetic mice
Experimental: Groups of diabetic mice (strain C 57, black, MRI derived Obese/Obese) of male sex of mean weight between 43 and 46 g were given the test compound W hydrochloride orally in tragacanth mucilage at a dose of 2, 5 or 100 mg/kg body weight per day for 8 days. Three hours after the last dose the animals were bled from the tail vein. The blood glucose levels were assessed by the glucose-oxidase method of GOD-Perid. Control groups (given doses of unmedicated tragacanth mucilage) were included with each test. The percentage reduction in the concentration of blood glucose was calculated by comparison with the simultaneous controls.

Rats (Sprague-Dawley) = assay: Hypoglycaemic Activity in Fasted Rats; details: 100 mg/kg body weight per day, oral, 4 days, fasted male Sprague-Dawley rats
Experimental: Rats (Sprague-Dawley) of male sex each weighing between 171 and 174 g were given the test compound W hydrochloride orally in tragacanth mucilage at a dose of 100 mg/kg body weight per day for 4 days. Four hours after the third dose the animals were kept without food up to and beyond the fourth dose. Three hours after the last dose the animals were bled from the tail vein. The blood glucose levels were assessed by the glucose-oxidase method of GOD-Perid. Control groups (given doses of unmedicated tragacanth mucilage) were included with each test. The percentage reduction in the concentration of blood glucose was calculated by comparison with the simultaneous controls.

[3] = Mus musculus, po, 72 h, read-out: change in blood glucose compared with control

How did the change in vivo at 200 mg/kg [1, 3] turn out when `Cc1ccccc1S(=O)(=O)Nc1ccccc1C(=O)NCCCn1ccnc1` [QQ, 2-(2-methylbenzenesulphonamido)-N-(3-imidazol-1-ylpropyl)benzamide] was run?
Its change in vivo at 200 mg/kg is -43%.

For `O=C(NCCCn1ccnc1)c1ccccc1NS(=O)(=O)c1ccc(Cl)cc1Cl` [Y, 2-(2,4-dichlorobenzenesulphonamido)-N-(3-imidazol-1-ylpropyl)benzamide], which change in vivo at 200 mg/kg [1, 3] is on record?
Its change in vivo at 200 mg/kg is -51%.

`O=C(NCCCn1ccnc1)c1ccccc1NS(=O)(=O)c1ccccc1` [E, 2-(benzenesulphonamido)-N-(3-imidazol-1-ylpropyl)benzamide] was tested. Which “% change in serum cholesterol compared with control” value (“% change in serum cholesterol” for short) (Male Wistar rats; 200 mg/kg body weight per day) did it give?
Its value is -31%.

What about the “% change in serum triglycerides compared with control” value (“% change in serum triglycerides” below) (Male Wistar rats; 200 mg/kg body weight per day) of the same compound?
The value was “+55%”.

How did the change in vivo at 200 mg/kg [1, 3] turn out when `O=C(NCCCn1ccnc1)c1cc(Cl)ccc1NS(=O)(=O)c1ccc(Cl)cc1` [I, 5-chloro-2-(4-chlorobenzenesulphonamido)-N-(3-imidazol-1-ylpropyl)benzamide] was run?
The change in vivo at 200 mg/kg was -57%.

`O=C(NCCCn1ccnc1)c1ccccc1NS(=O)(=O)c1cccc(C(F)(F)F)c1` [W, 2-(3-trifluoromethylbenzenesulphonamido)-N-(3-imidazol-1-ylpropyl)benzamide] was tested. Which “change in blood glucose compared with control” value [1] did it give?
The value was -68%.

`O=C(NCCCn1ccnc1)c1ccccc1NS(=O)(=O)c1ccc(Cl)c(Cl)c1` [X, 2-(3,4-dichlorobenzenesulphonamido)-N-(3-imidazol-1-ylpropyl)benzamide] was tested. Which change in vivo at 200 mg/kg [1, 3] did it give?
The change in vivo at 200 mg/kg was -58%.

How did the change in vivo at 200 mg/kg [1, 3] turn out when `CC(CCNC(=O)c1ccccc1NS(=O)(=O)c1ccc(Cl)cc1)n1ccnc1` (racemic) [WW, (±)-2-(4-chlorobenzenesulphonamido)-N-(3-imidazol-1-ylbutyl)benzamide] was run?
Its change in vivo at 200 mg/kg is -24%.

What does the source list for `O=C(NCCCn1ccnc1)c1ccccc1NS(=O)(=O)c1ccc(Br)cc1` [D, 2-(4-bromobenzenesulphonamido)-N-(3-imidazol-1-ylpropyl)benzamide]?
% change in serum cholesterol compared with control (Male Wistar rats; 200 mg/kg body weight per day): -63%; % change in serum triglycerides compared with control (Male Wistar rats; 200 mg/kg body weight per day): -59%

With `O=C(NCCCn1ccnc1)c1ccccc1NS(=O)(=O)c1ccc(Cl)cc1` [A, 2-(4-chlorobenzenesulphonamido)-N-(3-imidazol-1-ylpropyl)benzamide] as the compound, how does the “% change in serum cholesterol” value (Male Wistar rats; 30 mg/kg body weight per day) read?
Its value is -13%.

And the “% change in serum triglycerides” value (Male Wistar rats; 30 mg/kg body weight per day)?
Its value is “+67%”.

And the “% change in serum cholesterol” value (Male Wistar rats; 100 mg/kg body weight per day)?
Its value is -35%.

What about the “% change in serum triglycerides” value (Male Wistar rats; 100 mg/kg body weight per day) of the same compound?
Its value is “+36%”.

And the “% change in serum cholesterol” value (Male Wistar rats; 200 mg/kg body weight per day)?
The value was -82% and -83%.

And the change in vivo at 30 mg/kg [1, 3]?
The change in vivo at 30 mg/kg was -13%.

What about the change in vivo at 100 mg/kg [1, 3] of the same compound?
Its change in vivo at 100 mg/kg is -49%.

Which “% change in blood glucose compared with control” value (“% change in blood glucose” below) ([2]; 2 mg/kg body weight per day) does the source give for `Cl.O=C(NCCCn1ccnc1)c1ccccc1NS(=O)(=O)c1cccc(C(F)(F)F)c1` [W hydrochloride, 2-(3-trifluoromethylbenzenesulphonamido)-N-(3-imidazol-1-ylpropyl)benzamide hydrochloride] here?
Its value is -25%.

What about the “% change in blood glucose” value ([2]; 5 mg/kg body weight per day) of the same compound?
Its value is -28%.

What about the “% change in blood glucose” value ([2]; 100 mg/kg body weight per day) of the same compound?
The value was -50%.

And the “change in blood glucose compared with control” value [1]?
The value was -62%.

What about the change in vivo at 5 mg/kg ([1]; Mus musculus, po, 72 h, 5 mg/kg body weight per day, read-out: change in blood glucose compared with control) of the same compound?
Its change in vivo at 5 mg/kg is -25%.

And the change in vivo at 10 mg/kg ([1]; Mus musculus, po, 72 h, 10 mg/kg body weight per day, read-out: change in blood glucose compared with control)?
The change in vivo at 10 mg/kg was -29%.

And the change in vivo at 30 mg/kg [1, 3]?
Its change in vivo at 30 mg/kg is -58%.

And the change in vivo at 100 mg/kg [1, 3]?
Its change in vivo at 100 mg/kg is -50%.

And the change in vivo at 500 mg/kg ([1]; Mus musculus, po, 72 h, 500 mg/kg body weight per day, read-out: change in blood glucose compared with control)?
Its change in vivo at 500 mg/kg is -46%.

What about the “% change in blood glucose” value (Rats (Sprague-Dawley)) of the same compound?
Its value is -26%.

How did the change in vivo at 200 mg/kg [1, 3] turn out when `Cc1cn(CCCNC(=O)c2ccccc2NS(=O)(=O)c2ccc(Cl)cc2)cn1` [N, 2-(4-chlorobenzenesulphonamido)-N-[3-(4-methylimidazol-1-yl)propyl]benzamide] was run?
The change in vivo at 200 mg/kg was -48%.

Which change in vivo at 200 mg/kg [1, 3] does the source give for `O=C(NCCCn1ccnc1)c1ccccc1NS(=O)(=O)c1cc(Cl)ccc1Cl` [J, 2-(2,5-dichlorobenzenesulphonamido)-N-(3-imidazol-1-ylpropyl)benzamide] here?
Its change in vivo at 200 mg/kg is -42%.

`Cc1ccc(S(=O)(=O)Nc2ccccc2C(=O)NCCCn2ccnc2)cc1` [F, 2-(4-methylbenzenesulphonamido)-N-(3-imidazol-1-yl-propyl)benzamide] was tested. Which “% change in serum cholesterol” value (Male Wistar rats; 200 mg/kg body weight per day) did it give?
Its value is -72%.

What about the “% change in serum triglycerides” value (Male Wistar rats; 200 mg/kg body weight per day) of the same compound?
Its value is -60%.

What about the change in vivo at 200 mg/kg [1, 3] of the same compound?
The change in vivo at 200 mg/kg was -32%.

Which change in vivo at 200 mg/kg [1, 3] does the source give for `O=C(NCCCn1ccnc1)c1ccccc1NS(=O)(=O)c1ccc(F)cc1F` [OO, 2-(2,4-difluorobenzenesulphonamido)-N-(3-imidazol-1-ylpropyl)benzamide] here?
Its change in vivo at 200 mg/kg is -35%.

Which change in vivo at 200 mg/kg [1, 3] does the source give for `O=C(NCCCn1ccnc1)c1ccccc1NS(=O)(=O)c1cccc(Cl)c1` [B, 2-(3-chlorobenzenesulphonamido)-N-(3-imidazol-1-ylpropyl)benzamide] here?
The change in vivo at 200 mg/kg was -60%.

For `O=C(NCCn1ccnc1)c1ccccc1NS(=O)(=O)c1ccc(Cl)cc1` [VV, 2-(4-chlorobenzenesulphonamido)-N-(2-imidazol-1-ylethyl)benzamide], which change in vivo at 200 mg/kg [1, 3] is on record?
Its change in vivo at 200 mg/kg is -53%.

`Cc1ccc(S(=O)(=O)Nc2ccccc2C(=O)NCCCn2ccnc2)cc1C` [G, 2-(3,4-dimethylbenzenesulphonamido)-N-(3-imidazol-1-ylpropyl)benzamide] was tested. Which change in vivo at 200 mg/kg [1, 3] did it give?
Its change in vivo at 200 mg/kg is -25%.
